{
  "source": "patent US20050250137A1",
  "about": "“Molecular targets of cancer and aging” (priority 2002, published 2005)",
  "assay_type_in_all_cases": "cell-based, human",
  "key": {"[1]": {"tested_on": "immortal (high passage) MDAH041 cells"}, "[2]": {"tested_on": "normal skin fibroblast cell line 1502 (CRL-1502)", "assay": "Q-RT-PCR gene expression, normal fibroblasts 1502 treated or untreated with 5-aza-CdR", "conditions": "before and after 5azaCdR"}, "immortal MDAH041 cells [3]": {"tested_on": "immortal MDAH041 cells", "assay": "Western blot protein expression after 5-aza-dC, immortal MDAH041", "conditions": "for p16^INK4a protein upregulation: 5-aza-CdR-treated vs untreated immortal MDAH041; for p21 protein levels: 5-aza-dC treatment of immortal MDAH041", "experimental": "Twenty μg of cell extract was boiled for 5 minutes in sample buffer, electrophoresed on a 15% SDS-polyacrylamide gel, and transferred to nitrocellulose. […] The anti-mouse IgG was incubated with the blot for 1 hour at room temperature. The signal was detected by enhanced chemiluminescence. […] Louis, Mo.). Lysates were incubated on ice for 30 minutes followed by centrifugation at 10,000×g. Protein was quantitated using the Bradford Reagent (Sigma, St. Louis, Mo.). Equal amounts of protein were electrophoresed in an appropriate percentage SDS-polyacrylamide gel (SDS-PAGE) and transferred to nitrocellulose membranes. The membranes were incubated with antibodies as indicated. […] The western blots were then incubated with a horseradish peroxidase-conjugated secondary and developed using SuperSignal West Pico (Pierce, Rockford, Ill.). As a control, parallel western blots were probed with α-Tubulin."}, "immortal MDAH041 cells [4]": {"tested_on": "immortal MDAH041 cells", "assay": "Senescence phenotype (morphology, senescence associated β-galactosidase at pH 6), immortal MDAH041", "conditions": "immortal MDAH041 high passage treated with 5AZA-dC (1 μM days 1, 3, 5)", "procedure": "The MDAH041 (p53 frameshift mutation) cell line was derived from primary fibroblasts obtained by skin biopsy from patients with LFS. […] All cells were grown in modified Eagles medium (MEM, Gibco BRL, MD, USA) with 10% fetal calf serum and antibiotics. The CRL1502 cell line was derived from primary fibroblasts obtained by skin biopsy from a normal donor (ATCC 1502, Rockville, Md., USA)."}, "[5]": {"tested_on": "immortal MDAH087 cell lines", "assay": "Senescence phenotype (morphology, senescence-associated β-galactosidase), immortal MDAH087 cell lines", "conditions": "5-aza-dC treatment of immortal MDAH087 cell lines"}, "[6]": {"conditions": "Western blot, listed as 5AZA-dC"}, "[7]": {"conditions": "Western blot, after 5-aza-dC treatment, MDAH041"}, "[8]": {"conditions": "Western blot, immortal MDAH041 treated with 5-aza-dC"}},
  "note": "Entries after “also recorded” stand apart in the source; their conditions may differ.",
  "data": [
    {"smiles": "Nc1ncn([C@H]2C[C@H](O)[C@@H](CO)O2)c(=O)n1", "note": "[5-aza-dC, 5-aza-2′-deoxycytidine]", "values": [
      {"measurement": "(2-5′) oligoadenylate synthetase E gene OAS1 expression, MDAH041HP vs. MDAH0411HP 5aza", "setting": "[1]", "value": "1072↑ fold"},
      {"measurement": "ALDH1A3 expression, IM vs 5-aza-dC, QP", "setting": "[1]", "value": 7.84, "unit": "fold"},
      {"measurement": "CIG49 expression, MDAH041HP vs. MDAH0411HP 5aza", "setting": "[1]", "value": "204↑ fold"},
      {"measurement": "CLTB expression, IM vs 5-aza-dC, QP", "setting": "[1]", "value": 2.04, "unit": "fold"},
      {"measurement": "CREG expression, IM vs 5-aza-dC, QP", "setting": "[1]", "value": 2.88, "unit": "fold"},
      {"measurement": "HSPA2 expression, IM vs 5-aza-dC, QP", "setting": "[1]", "value": 2.74, "unit": "fold"},
      {"measurement": "IGFBP3 expression, IM vs 5-aza-dC, QP", "setting": "[1]", "value": 8.29, "unit": "fold"},
      {"measurement": "IGFBP4 expression, IM vs 5-aza-dC, QP", "setting": "[1]", "value": 7.00, "unit": "fold"},
      {"measurement": "Interferon-induced 17-kDa/15-kDA expression, MDAH041HP vs. MDAH0411HP 5aza", "setting": "[1]", "value": "443↑ fold"},
      {"measurement": "Interferon-inducible 56 kDa protein expression, MDAH041HP vs. MDAH0411HP 5aza", "setting": "[1]", "value": "1807↑ fold"},
      {"measurement": "Interferon-inducible membrane protein 9-27 (IFITM1) expression, MDAH041HP vs. MDAH0411HP 5aza", "setting": "[1]", "value": "278↑ fold"},
      {"measurement": "Interferon-inducible protein p78 expression, MDAH041HP vs. MDAH0411HP 5aza", "setting": "[1]", "value": "480↑ fold"},
      {"measurement": "Interferon-regulatory factor 7B expression, MDAH041HP vs. MDAH0411HP 5aza", "setting": "[1]", "value": "20031↑ fold"},
      {"measurement": "KIAA1750 expression, IM vs 5-aza-dC, QP", "setting": "[1]", "value": 3.86, "unit": "fold"},
      {"measurement": "MGSF expression, MDAH041HP vs. MDAH0411HP 5aza", "setting": "[1]", "value": "800↑ fold"},
      {"measurement": "MIF expression, MDAH041HP vs. MDAH0411HP 5aza", "setting": "[1]", "value": "130↑ fold"},
      {"measurement": "NDN expression, MDAH041HP vs. MDAH0411HP 5aza", "setting": "[1]", "value": "10↑ fold"},
      {"measurement": "OPTN expression, IM vs 5-aza-dC, QP", "setting": "[1]", "value": 9.21, "unit": "fold"},
      {"measurement": "SERPINB2 expression, IM vs 5-aza-dC, QP", "setting": "[1]", "value": 12.90, "unit": "fold"},
      {"measurement": "STAT 1, 91 kD expression, MDAH041HP vs. MDAH0411HP 5aza", "setting": "[1]", "value": "158↑ fold"},
      {"measurement": "STAT1α expression, IM vs 5-aza-dC, QP", "setting": "[1]", "value": 119.85, "unit": "fold"},
      {"measurement": "TNFAIP2 expression, IM vs 5-aza-dC, QP", "setting": "[1]", "value": 6.10, "unit": "fold"},
      {"measurement": "additional increase in hTERT RNA expression", "setting": "[1]", "value": 17, "unit": "fold"},
      {"measurement": "(2-5′) oligoadenylate synthetase E gene OAS1 expression, 1502 vs. 1502 5aza", "setting": "[2]; ↑ increase", "value": "2↑ fold"},
      {"measurement": "CIG49 expression, 1502 vs. 1502 5aza", "setting": "[2]; ↑ increase", "value": "1.1↑ fold"},
      {"measurement": "Interferon-induced 17-kDa/15-kDA expression, 1502 vs. 1502 5aza", "setting": "[2]; ↑ increase", "value": "1.8↑ fold"},
      {"measurement": "Interferon-inducible protein p78 expression, 1502 vs. 1502 5aza", "setting": "[2]; ↑ increase", "value": "1.8↑ fold"},
      {"measurement": "Interferon-regulatory factor 7B expression, 1502 vs. 1502 5aza", "setting": "[2]; ↑ increase", "value": "1.5↑ fold"},
      {"measurement": "STAT 1, 91 kD expression, 1502 vs. 1502 5aza", "setting": "[2]; ↑ increase", "value": "1.8↑ fold"},
      {"measurement": "Interferon-inducible 56 kDa protein expression, 1502 vs. 1502 5aza", "setting": "[2]; ↓ decrease", "value": "1.2↓ fold"},
      {"measurement": "Interferon-inducible membrane protein 9-27 (IFITM1) expression, 1502 vs. 1502 5aza", "setting": "[2]; ↓ decrease", "value": "1.8↓ fold"},
      {"measurement": "MGSF expression, 1502 vs. 1502 5aza", "setting": "[2]; ↓ decrease", "value": "3.2↓ fold"},
      {"measurement": "MIF expression, 1502 vs. 1502 5aza", "setting": "[2]; ↓ decrease", "value": "1.7↓ fold"},
      {"measurement": "NDN expression, 1502 vs. 1502 5aza", "setting": "[2]; ↓ decrease", "value": "1.4↓ fold"},
      {"measurement": "p16^INK4a protein upregulation", "setting": "immortal MDAH041 cells [3]; Western blot, listed as 5-aza-CdR", "value": "over 500 fold"},
      {"measurement": "p16^INK4a protein upregulation", "setting": "immortal MDAH041 cells [3]; [6]", "value": "approximately 500 fold"},
      {"measurement": "p21 protein levels", "setting": "immortal MDAH041 cells [3]; Western blot", "value": "protein expression of both was induced"},
      {"measurement": "p21 protein levels", "setting": "immortal MDAH041 cells [3]; [6]", "value": "not regulated"},
      {"measurement": "IGFBP4 protein", "setting": "immortal MDAH041 cells [3]; [7]", "value": "slight induction; also recorded: little to no induction"},
      {"measurement": "IGFBPrP1 protein", "setting": "immortal MDAH041 cells [3]; [7]", "value": "little to no induction"},
      {"measurement": "p16^INK4a protein expression", "setting": "immortal MDAH041 cells [3]; [8]", "value": "protein expression of both was induced"},
      {"measurement": "protein levels of STAT1α", "setting": "immortal MDAH041 cells [3]; [8]", "value": "increased in response to treatment"},
      {"measurement": "IGFBP3 protein levels", "setting": "immortal MDAH041 cells [3]; Western blot, response to 5-aza-dC, MDAH041", "value": "increased in response to 5-aza-dC"},
      {"measurement": "STAT1 protein upregulation", "setting": "immortal MDAH041 cells [3]; immortal cells, 5AZA-dC treatment", "value": 4.7, "unit": "fold"},
      {"measurement": "senescent phenotype of treated cells", "setting": "immortal MDAH041 cells [4]", "value": "had flat morphology, contained lipofuscin granules, and showed senescence associated β-galactosidase activity at pH 6"},
      {"measurement": "senescent phenotype of treated cells", "setting": "[5]", "value": "resulted in a flat senescence-like morphology and the activation of the senescence-associated β-galactosidase activity"}
    ]}
  ]
}
